Earlier results as cited in patent US8617906B2, “Identification and screening of triptolide target molecules” (priority 2004, dated 2013).

Key:
[1] = in vivo; cited from earlier work
[2] = test system: human T cell lymphoma (Jurkat) cells; details: cited from earlier work
[3] = test system: IL-2; details: cited from earlier work
[4] = test system: Akt/PKB; details: cited from earlier work
[5] = test system: AML cells; details: cited from earlier work
[6] = cited from earlier work
[7] = test system: dopaminergic neurons; details: cited from earlier work
[8] = 0.5-1 μg/kg; cited from earlier work
[9] = target: Thioredoxin reductase (Homo sapiens, UniProt Q16881); details: cited from earlier work
Thioredoxin reductase, sequence (Q16881 151-649 limits assumed): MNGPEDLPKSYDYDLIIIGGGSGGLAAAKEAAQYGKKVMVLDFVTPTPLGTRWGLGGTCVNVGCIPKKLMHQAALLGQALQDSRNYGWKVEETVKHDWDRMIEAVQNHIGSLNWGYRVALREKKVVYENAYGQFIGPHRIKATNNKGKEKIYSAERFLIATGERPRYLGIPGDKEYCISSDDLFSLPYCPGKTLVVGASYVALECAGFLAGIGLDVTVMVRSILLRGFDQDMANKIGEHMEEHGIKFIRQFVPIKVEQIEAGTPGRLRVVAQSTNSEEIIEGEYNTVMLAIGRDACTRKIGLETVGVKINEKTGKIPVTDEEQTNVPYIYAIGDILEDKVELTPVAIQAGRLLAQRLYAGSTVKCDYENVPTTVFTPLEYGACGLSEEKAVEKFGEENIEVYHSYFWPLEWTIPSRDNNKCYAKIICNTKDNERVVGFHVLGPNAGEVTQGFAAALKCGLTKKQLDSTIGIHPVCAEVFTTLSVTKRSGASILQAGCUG

In the case of 14-succinimide ester of triptolide, the “bleomycin-induced PF” value [1] is given as “block bleomycin-induced PF”.

In the case of CC(C)[C@]12O[C@H]1[C@@H]1O[C@]13[C@]1(O[C@H]1C[C@H]1C4=C(CC[C@@]13C)C(=O)OC4)[C@H]2F [PG763, 14-deoxy-14α-fluoro triptolide], the cytotoxicity [2] is given as “cytotoxicity in human T cell lymphoma (Jurkat) cells” and the “inhibition of IL-2” value [3] is given as “inhibition of IL-2”.

In the case of Cc1cc(C)c(/C=C2\C(=O)Nc3ccccc32)[nH]1 [SU-5416], the “VEGF-stimulated phosphorylation of Akt/PKB” value [4] is listed as “abolished” and the “VEGF-induced colony formation / clonogenic response” value [5] is listed as “abolished”.

For CC(C)[C@]1(O)[C@H](Cl)[C@@H]2O[C@]23[C@]2(O[C@H]2C[C@H]2C4=C(CC[C@@]23C)C(=O)OC4)[C@@H]1O [Tripchlorolide], the “conversion in vivo to triptolide” value [6] is given as “prodrug of triptolide”, the “dopaminergic neuron axonal elongation” value [7] is given as “promotes dopaminergic neuron axonal elongation” and the “protection from neurotoxic lesion induced by 1-methyl-4-phenylpyridinium ion” value [7] is given as “protects dopaminergic neurons from a neurotoxic lesion”. The “brain-derived neurotrophic factor mRNA expression” value ([7]; in situ hybridization) was “stimulates brain-derived neurotrophic factor mRNA expression”, the “TNF-α and IL-2 levels in the brain” value [8] was “attenuates the elevation of TNF-α and IL-2 levels in the brain” and the dopamine depletion [8] was “attenuates dopamine depletion”. The “recovery of rats undergoing neurosurgery” value [8] was “improves recovery of rats undergoing neurosurgery”, the “sparing of SN neurons” value [8] was “significant sparing of SN neurons” and the “survival of dopaminergic neurons” value [8] was “increases the survival of dopaminergic neurons”.

In the case of CC(C)[C@]12O[C@H]1[C@@H]1O[C@]13[C@]1(O[C@H]1C[C@H]1C4=C(CC[C@@]13C)C(=O)OC4)[C@@H]2OC(=O)CCC(=O)[O-].[Na+] [PG490-88], the “conversion in vivo to triptolide” value [6] is given as “converting in vivo to triptolide”.

In the case of CC(=O)OC[C@H]1O[C@@H]([S-])[C@H](OC(C)=O)[C@@H](OC(C)=O)[C@@H]1OC(C)=O.CCP(CC)CC.[Au+] [auranofin], the “thioredoxin reductase as drug target” value [9] is given as “target of auranofin”.
